Tests used:
MRC5 = assay: Antiproliferative activity against human MRC5 cells after 72 hrs by MTT assay; format: cell-based; details: MRC5, 72 h
SK-N-MC [1] = assay: cells; details: Homo sapiens, 72 h
Description: Antiproliferative activity against human SK-N-MC cells after 72 hrs by MTT assay

[2] = Antitumor activity against human CHP100 cells at 60 uM after 72 hrs; format: functional
SK-N-MC [3] = assay: Antiproliferative activity against human SK-N-MC cells; format: functional, cell-based
CHP-126 = assay: Antitumor activity against human CHP126 cells at 60 uM after 72 hrs; format: functional
[4] = Toxicity in iv dosed CD2F1 hybrid mouse assessed as maximum tolerated dose administered BID at an interval of 6 hrs for 5 days a week over 2 weeks; format: organism-based; details: in vivo
SK-MEL-28 = assay: Antitumor activity against human SK-MEL-28 cells implanted in nude mouse assessed as reduction in tumor growth at 0.4 mg/kg/day measured up to 7 weeks relative to control; format: functional; design: scale not given: the % may be the effect or the level left
M109 [5] = assay: Antitumor activity against mouse M109 cells implanted in CD2F1 hybrid mouse assessed as reduction of tumor weight at 0.4 mg/kg, iv administered 4 days after implantation BID for 5 days measured on day 12 after implantation relative to control; format: functional; design: scale not given: the % may be the effect or the level left
SK-N-MC [6] = assay: Iron chelating activity in human SK-N-MC cells assessed as cellular iron efflux at 25 uM after 3 hrs relative to control; format: functional
SK-N-MC [7] = assay: Effect on iron metabolism in human SK-N-MC cells assessed as cellular iron uptake from transferrin at 25 uM after 3 hrs in presence of pronase relative to control; format: functional
SK-N-MC [8] = assay: Antiproliferative activity against human SK-N-MC cells by MTT assay; format: functional, cell-based
Rattus norvegicus = assay: Iron chelating activity in rat assessed as faecal iron excretion at 25 to 100 mg/kg, po administered as single dose relative to basal level; format: functional, Feces; details: dose mg/kg 25-100
SK-N-MC [9] = assay: Antiproliferative activity against human SK-N-MC cells after 96 hrs by MTT assay; format: functional, cell-based
M109 [10] = assay: Antitumor activity against mouse M109 cells implanted in CD2F1 hybrid mouse assessed as reduction of tumor weight at 6 mg/kg, iv administered 4 days after implantation BID for 5 days measured on day 12 after implantation relative to control; format: functional; design: scale not given: the % may be the effect or the level left

With `NC(=S)N/N=C/c1c(O)ccc2ccccc12` the IC50 (MRC5) was greater than 25 µM and the IC50 (SK-N-MC [1]) was 0.5 µM.

Work on `CC(=O)N(O)CCCCCNC(=O)CCC(=O)N(O)CCCCCNC(=O)CCC(=O)N(O)CCCCCN` [DEFEROXAMINE] yielded an IC50 (SK-N-MC [1]) of 5 µM, an Activity [2] of 80% and an IC50 (SK-N-MC [3]) of 22 µM. For the same molecule, the Activity (CHP-126) was 80%.

With `CN(C)C(=S)NN=C(c1ccccn1)c1ccccn1` the MTD at 2 weeks [4] was 0.4 mg/kg, the IC50 (SK-N-MC [1]) was 0.03 µM and the Activity (SK-MEL-28) was 8%. The Activity (M109 [5]) was 47%, the Activity (SK-N-MC [6]) was 47% and the Activity (SK-N-MC [7]) was 9%.

Molecule `O=C(N/N=C(\c1ccccc1)c1ccccn1)c1ccccc1` has an IC50 (SK-N-MC [8]) of 1 µM.

With `Cc1ncc(CO)c(/C=N/NC(=O)c2ccncc2)c1O` [PYRIDOXAL ISONICOTINOYL HYDRAZONE] the “fold change (FC)” value (Rattus norvegicus) was 8.

In the case of `O=C(N/N=C/c1c(O)ccc2ccccc12)c1ccncc1`, the IC50 (SK-N-MC [9]) is reported as 1 µM, the IC50 (SK-N-MC [1]) is reported as 0.3 µM and the IC50 (SK-N-MC [3]) is reported as 0.3 µM.

Molecule `O=C(N/N=C/c1ccccn1)c1cccs1` has an IC50 (SK-N-MC [8]) of 1 µM.

`NC(=S)N/N=C/c1ncccc1N` [TRIAPINE] gave an MTD at 2 weeks [4] of 6 mg/kg and an Activity (M109 [10]) of 10%.
